These results are taken from patent publication US7045532B2 (Millennium Pharmaceuticals, Inc., priority 1999, dated 2006).

The target of the assay is T1, ACE-2 (Homo sapiens, UniProt Q9BYF1).
T1 construct: a stop codon inserted after the serine immediately preceding the transmembrane domain; made in house; host or cells: CHO K1 cells (transient transfection, purified from conditioned medium)
Nature of the assay: ACE-2 Competitive Substrate Assay (ACS Assay). It counts as biochemical.

[1] abbreviates: Ki class, compounds tested in 5% DMSO, 12 compound concentrations, Ki=Kiapp/(1+[S]/Km), read-out: Human ACE-2 Activity.
[2] abbreviates: Table 3, very good ACE-2 inhibiting compounds, species not given, read-out: ACE-2 Activity, Ki.

Read-outs that look alike come from different tables or passages of the source.

T1 sequence (Q9BYF1 18-740 limits assumed): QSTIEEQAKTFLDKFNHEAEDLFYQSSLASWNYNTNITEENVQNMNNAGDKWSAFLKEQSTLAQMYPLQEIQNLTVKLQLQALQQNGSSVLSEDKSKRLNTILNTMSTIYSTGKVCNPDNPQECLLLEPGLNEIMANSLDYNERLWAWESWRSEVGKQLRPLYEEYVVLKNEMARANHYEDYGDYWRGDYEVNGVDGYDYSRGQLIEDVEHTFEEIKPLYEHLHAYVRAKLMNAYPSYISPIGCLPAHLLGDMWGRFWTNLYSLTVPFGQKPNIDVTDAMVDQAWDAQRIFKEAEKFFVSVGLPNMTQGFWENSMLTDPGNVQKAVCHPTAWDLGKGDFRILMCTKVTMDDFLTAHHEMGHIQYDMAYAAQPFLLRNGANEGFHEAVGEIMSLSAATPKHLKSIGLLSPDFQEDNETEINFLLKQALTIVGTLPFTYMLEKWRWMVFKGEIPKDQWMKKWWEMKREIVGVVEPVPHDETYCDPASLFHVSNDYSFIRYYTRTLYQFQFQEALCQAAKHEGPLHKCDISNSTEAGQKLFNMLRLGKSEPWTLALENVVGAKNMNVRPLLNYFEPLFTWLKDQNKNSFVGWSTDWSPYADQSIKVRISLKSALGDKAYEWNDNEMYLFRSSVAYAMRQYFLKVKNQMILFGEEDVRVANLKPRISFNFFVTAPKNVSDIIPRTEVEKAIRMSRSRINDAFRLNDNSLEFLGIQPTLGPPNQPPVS

For the compound `Cc1ccc(-c2cccc(C[C@H](N[C@@H](CC(C)C)C(=O)O)C(=O)O)c2)cc1` [LY, (S,S)-2-[1-Carboxy-2-(4′-methyl-biphenyl-3-yl)-ethylamino]-4-methyl-pentanoic acid], the Ki under setting [1] is greater than 0.5 µM. The same measure, in the same setting: the figure for `COc1cccc(C(=O)NC[C@H](N[C@@H](CC(C)C)C(=O)O)C(=O)O)c1` [LZ, 2-[1-Carboxy-2-(3-methoxy-benzoylamino)-ethylamino]-4-methyl-pentanoic acid] is 0.1 to 0.5 µM.

As for `C[C@@H](N[C@@H](CCCN)C(=O)O)C(=O)O` [M, 5-Amino-2-(1-carboxy-ethylamino)-pentanoicacid], the Ki (Ki class, compounds tested in 5% DMSO, 12 concentrations, read-out: Human ACE-2 Activity) was greater than 0.5 µM.

On to `CC(C)C[C@H](N[C@@H](CC(=O)Nc1nc2ccc(Cl)cc2s1)C(=O)O)C(=O)O` [MB, (S,S)-2-[1-Carboxy-2-(6-chloro-benzothiazol-2-ylcarbamoyl)-ethylamino]-4-methyl-pentanoic acid], for which the Ki is less than 0.1 µM under setting [1] and less than 0.05 µM under setting [2]. Turning to `Cc1cc2nc(NC(=O)C[C@H](N[C@@H](CC(C)C)C(=O)O)C(=O)O)sc2cc1C` [MC, (S,S)-2-[1-Carboxy-2-(5,6-dimethyl-benzothiazol-2-ylcarbamoyl)-ethylamino]-4-methyl-pentanoic acid], the Ki under setting [1] was greater than 0.5 µM.

With `CC(C)C[C@H](N[C@@H](CC(=O)Nc1nc2c(Cl)cccc2s1)C(=O)O)C(=O)O` [MD, (S,S)-2-[1-Carboxy-2-(4-chloro-benzothiazol-2-ylcarbamoyl)-ethylamino]-4-methyl-pentanoic acid], the Ki runs as follows: under setting [1], less than 0.1 µM; under setting [2], less than 0.05 µM.

In the case of `CC(C)C[C@H](N[C@@H](Cn1ccn(CCC2CCCCC2)c1=O)C(=O)O)C(=O)O` [ME, (S,S)-2-{1-Carboxy-2-[3-(2-cyclohexyl-ethyl)-2-oxo-2,3-dihydro-imidazol-1-yl]-ethylamino}-4-methyl-pentanoic acid], under setting [1], the Ki lay within 0.1 to 0.5 µM. `CC(C)C[C@H](N[C@@H](Cn1ccn([C@H](C)c2ccccc2)c1=O)C(=O)O)C(=O)O` [MF, 2-[1-Carboxy-2-[2-oxo-3-(1-phenyl-ethyl)-2,3-dihydro-imidazol-1-yl]-ethylamino]-4-methyl-pentanoic acid]: the Ki under setting [1] was greater than 0.5 µM.

Take `CC(C)C[C@H](N[C@@H](CC(=O)Nc1nc2cc(Cl)c(Cl)cc2s1)C(=O)O)C(=O)O` [MG, (S,S)-2-[1-Carboxy-2-(5,6-dichloro-benzothiazol-2-ylcarbamoyl)-ethylamino]-4-methyl-pentanoic acid]: the Ki under setting [1] was in the range of 0.1 to 0.5 µM. On the same count and under the same terms, the figure for `CC(C)C[C@H](N[C@@H](Cn1ccn(CC2CC2)c1=O)C(=O)O)C(=O)O` [MH, 2-[1-Carboxy-2-(3-cyclopropylmethyl-2-oxo-2,3-dihydro-imidazol-1-yl)-ethylamino]-4-methyl-pentanoic acid] is 0.1 to 0.5 µM; for `CC(C)C[C@H](N[C@@H](Cc1cccc(-c2cc(Cl)cc(Cl)c2)c1)C(=O)O)C(=O)O` [MI, (S,S)-2-[1-Carboxy-2-(3,′5′-dichloro-biphenyl-3-yl)-ethylamino]-4-methyl-pentanoic acid] it is 0.1 to 0.5 µM. The same measure, in the same setting: for `CC(C)C[C@H](N[C@@H](Cc1cccc(-c2ccsc2)c1)C(=O)O)C(=O)O` [MJ, (S,S)-2-[1-Carboxy-2-(3-thiophen-3-yl-phenyl)-ethylamino]-4-methyl-pentanoic acid] the value was greater than 0.5 µM; for `COc1cc(OC)cc(-c2cccc(C[C@H](N[C@@H](CC(C)C)C(=O)O)C(=O)O)c2)c1` [MK, (S,S)-2-[1-Carboxy-2-(3′,5′-dimethoxy-biphenyl-3-yl)-ethylamino]-4-methyl-pentanoic acid], greater than 0.5 µM; for `COC(=O)[C@H](Cc1ccn(C(=O)OC(C)(C)C)n1)N[C@@H](CC(C)C)C(=O)OCc1ccccc1` [ML, 3-[2-(1-Benzyloxycarbonyl3-methyl-butylamino)-2-methoxycarbonyl-ethyl]-pyrazole-1-carboxylicacid tert-butyl ester], greater than 0.5 µM. Turning to `COC(=O)[C@H](Cc1cncn1Cc1cc(Cl)cc(Cl)c1)N[C@@H](CC(C)C)C(=O)OC` [MM, 2-{2-[3-(3,5-Dichloro-benzyl)-3H-imidazol-4-yl]-1-methoxycarbonyl-ethylamino}-4-methyl-pentanoic acidmethyl ester], the Ki by setting is: under setting [1], less than 0.1 µM; under setting [2], less than 0.05 µM. `CC(C)C[C@H](N[C@@H](Cn1ccn(C2CCCCC2)c1=O)C(=O)O)C(=O)O` [MN, 2-[1-Carboxy-2-(3-cyclohexyl-2-oxo-2,3-dihydro-imidazol-1-yl)-ethylamino]-4-methyl-pentanoic acid]: under setting [1], the Ki fell in the range of 0.1 to 0.5 µM. Same read-out and setting: the figure for `COc1ccc2nc(NC(=O)C[C@H](N[C@@H](CC(C)C)C(=O)O)C(=O)O)sc2c1` [MO, (S,S)-2-[1-Carboxy-2-(6-methoxy-benzothiazol-2-ylcarbamoyl)-ethylamino]-4-methyl-pentanoic acid] is 0.1 to 0.5 µM; for `CCOc1ccc2nc(NC(=O)C[C@H](N[C@@H](CC(C)C)C(=O)O)C(=O)O)sc2c1` [MP, (S,S)-2-[1-Carboxy-2-(6-ethoxy-benzothiazol-2-ylcarbamoyl)-ethylamino]-4-methyl-pentanoic acid] it is 0.1 to 0.5 µM. For the compound `CC(C)C[C@H](N[C@@H](CC(=O)Nc1nc2ccc(F)cc2s1)C(=O)O)C(=O)O` [MQ, 2-[1-Carboxy-2-(6-fluoro-benzothiazol-2-ylcarbamoyl)-ethylamino]-4-methyl-pentanoic acid], the Ki runs as follows: under setting [1], less than 0.1 µM; under setting [2], less than 0.05 µM. Consider `CC(C)C[C@H](N[C@@H](CC(=O)Nc1nc2ccc(Br)cc2s1)C(=O)O)C(=O)O` [MR, 2-[2-(6-Bromo-benzothiazol-2-ylcarbamoyl]-1-carboxy-ethylamino]-4-methyl-pentanoic acid], for which the Ki by setting is: under setting [1], less than 0.1 µM; under setting [2], less than 0.05 µM.

As for `CC(C)C[C@H](N[C@@H](Cn1ccn(-c2cc(F)cc(F)c2)c1=O)C(=O)O)C(=O)O` [MS, 2-{1-Carboxy-2-[3-(3,5-difluoro-phenyl)-2-oxo-2,3-dihydro-imidazol-1-yl]-ethylamino}-4-methyl-pentanoic acid], the Ki under setting [1] lay in the range of 0.1 to 0.5 µM. Still for that read-out and setting: for `CC(C)C[C@H](N[C@@H](CNC(=O)c1ccc2ccccc2c1)C(=O)O)C(=O)O` [MT, 2-(1-Carboxy-2-[(naphthalene-2-carbonyl)amino]-ethylamino)-4-methyl-pentanoic acid] the value was greater than 0.5 µM. Take `CC(C)C[C@H](N[C@@H](CNS(=O)(=O)c1ccc2ccccc2c1)C(=O)O)C(=O)O` [MU, 2-[1-Carboxy-2-(naphthalene-2-sulfonylamino)-ethylamino]-4-methyl-pentanoic acid]: under setting [1], the Ki was greater than 0.5 µM. Regarding `CC(C)C[C@H](N[C@@H](Cc1ccnn1Cc1cc(Cl)cc(Cl)c1)C(=O)O)C(=O)O` [MV, 2-{1-carboxy-2-[2-(3,5-dichlorobenzyl)-2H-pyrazol-3-yl]-ethylamino}-4-methyl-pentanoic acid], the Ki was less than 0.1 µM under setting [1] and less than 0.05 µM under setting [2].

For `CC(C)C[C@H](N[C@@H](Cc1cccc(-c2cccc3ccccc23)c1)C(=O)O)C(=O)O` [MX, (S,S)-2-[1-Carboxy-2-(3-naphthalen-1-yl-phenyl)-ethylamino]-4-methyl-pentanoic acid], the Ki under setting [1] is greater than 0.5 µM. Take `CCOC(=O)[C@H](Cc1cncn1Cc1cc(Cl)cc(Cl)c1)N[C@@H](CC(C)C)C(=O)O` [MY, (S,S) 2-{2-[3-(3,5-Dichloro-benzyl)-3H-imidazol-4-yl]-1-ethoxycarbonyl-ethylamino}-4-methyl-pentanoic acid]: the Ki under setting [1] lay in the range of 0.1 to 0.5 µM. Consider `CC(C)C[C@@H](N[C@H](Cc1cncn1Cc1cc(Cl)cc(Cl)c1)C(=O)O)C(=O)O` [MZ, (R,R)-2-{1-Carboxy-2-[3-(3,5-dichloro-benzyl)-3H-imidazol-4-yl]-ethylamino}-4-methyl-pentanoic acid], for which the Ki under setting [1] was 0.1 to 0.5 µM. Regarding `CC(C)C[C@H](N[C@@H](Cc1cccc(OCc2cc(F)cc(F)c2)c1)C(=O)O)C(=O)O` [NA, 2-[1-Carboxy-2-[3-(3,5-difluoro-benzyloxy)-phenyl]-ethylamino]-4-methyl-pentanoic acid], under setting [1], the Ki was 0.1 to 0.5 µM. In the case of `C=CCOc1cccc(C[C@H](N[C@@H](CC(C)C)C(=O)O)C(=O)O)c1` [NB, S,S-2-[2-(3-Allyloxy-phenyl)-1-carboxy-ethylamino]-4-methyl pentanoic acid], the Ki under setting [1] lay in the range of 0.1 to 0.5 µM. On the same count and under the same terms, the figure for `CC(C)C[C@H](N[C@@H](CN1CCN(c2cc(F)cc(F)c2)C1=O)C(=O)O)C(=O)O` [NC, 2-{1-Carboxy-2-[3-(3,5-difluoro-phenyl)-2-oxo-imidazolidin-1-yl]-ethylamino}-4-methyl-pentanoic acid] is greater than 0.5 µM; for `CC(C)C[C@H](N[C@@H](CNC(=O)c1cc2cc(Cl)ccc2[nH]1)C(=O)O)C(=O)O` [ND, 2-{1-Carboxy-2-[(5-chloro-1H-indole-2-carbonyl)-amino]-ethylamino}-4-methyl-pentanoic acid] it is greater than 0.5 µM.

Consider `CC(C)C[C@H](N[C@@H](Cc1ccc(-c2ccsc2)cc1)C(=O)O)C(=O)O` [NF, (S,S)-2-[1-Carboxy-2-(4-thiophen-3-yl-phenyl)-ethylamino]-4-methyl-pentanoic acid], for which the Ki by setting is: under setting [1], less than 0.1 µM; under setting [2], 0.05 to 0.1 µM.

Regarding `CC(C)C[C@H](N[C@@H](Cc1ccc(-c2cc(Cl)cc(Cl)c2)cc1)C(=O)O)C(=O)O` [NG, (S,S)-2-[1-Carboxy-2-(3′,5′-dichloro-biphenyl-4-yl)-ethylamino]-4-methyl-pentanoic acid], the Ki under setting [1] was less than 0.1 µM and the Ki under setting [2] is less than 0.05 µM. Consider `Cc1ccc(-c2ccc(C[C@H](N[C@@H](CC(C)C)C(=O)O)C(=O)O)cc2)cc1` [NH, (S,S)-2-[1-Carboxy-2-(4′-methyl-biphenyl-4-yl)-ethylamino]-4-methyl-pentanoic acid], for which the Ki under setting [1] is less than 0.1 µM and the Ki under setting [2] was less than 0.05 µM. In the same order, the values of `CC(C)C[C@H](N[C@@H](Cc1cncn1Cc1ccc(I)cc1)C(=O)O)C(=O)O` [NI, 2-[1-Carboxy-2-[3-(4-iodobenzyl)-3H-imidazol-4-yl]-ethylamino]-4-methyl-pentanoic acid] are less than 0.1 µM and less than 0.05 µM.
